# According to patent US4677100A, “Cephalosporin derivatives” (Banyu Pharmaceutical Co., Ltd., priority 1984, dated 1987):
# Read-outs that look alike come from different tables or passages of the source.
# What was measured:
# [1] = tested on: Gram-positive bacteria and Gram-negative bacteria; details: background of the art; cited from earlier work
# Gram-negative bacteria = details: background of the art; cited from earlier work
# Gram-positive bacteria = details: background of the art; cited from earlier work
# P. maltophilia IID 1275 = assay: MIC, agar plate dilution method; assay type: cell-based, Pseudomonas maltophilia; details: Stenotrophomonas maltophilia
# Procedure: (§1) The minimum inhibitory concentrations (MIC: μg/ml) of the compounds of the present invention against various microorganisms were measured by an agar plate dilution method (inoculum size: 10^6 CFU/ml) by using Sensitivity Disk Agar (Nissui) in comparison with Cefotaxime and Ceftazidime as comparative compounds.
# P. aeruginosa AKR17 = assay: MIC, agar plate dilution method; assay type: cell-based, Pseudomonas aeruginosa; details: Pseudomonas aeruginosa
# Procedure: as §1
# P. aeruginosa AK109 = assay: MIC, agar plate dilution method; assay type: cell-based, Pseudomonas aeruginosa; details: Pseudomonas aeruginosa
# Procedure: as §1
# S. aureus JS-1 = assay: MIC, agar plate dilution method; assay type: cell-based; details: Staphylococcus aureus
# Procedure: as §1
# S. marcescens No. 16-2 = assay: MIC, agar plate dilution method; assay type: cell-based; details: Serratia marcescens
# Procedure: as §1
# E. coli ML1410/Rte16 = assay: MIC, agar plate dilution method; assay type: cell-based; details: for MIC: Escherichia coli, ML1410/RTE16, read-out: Minimum Inhibitory Concentration
# Procedure: as §1
# K. pneumoniae No. 42 = assay: MIC, agar plate dilution method; assay type: cell-based; details: Klebsiella pneumoniae
# Procedure: as §1
# E. coli W3630/Rms213 = assay: MIC, agar plate dilution method; assay type: cell-based; details: for Minimum Inhibitory Concentration: E. coli W3630/Rms213, 10^6 CFU/ml, Sensitivity Disk Agar; for MIC: Escherichia coli, W3630/RMS213, read-out: Minimum Inhibitory Concentration
# Procedure: as §1
# P. mirabilis JY10 = assay: MIC, agar plate dilution method; assay type: cell-based; details: Proteus mirabilis
# Procedure: as §1
# A. calcoaceticus No. 14 = assay: MIC, agar plate dilution method; assay type: cell-based; details: Acinetobacter calcoaceticus
# Procedure: as §1
# S. aureus NIHJJC-1 = assay: MIC, agar plate dilution method; assay type: cell-based; details: Staphylococcus aureus
# Procedure: as §1
# E. coli W3630/Rms212 = assay: MIC, agar plate dilution method; assay type: cell-based; details: for Minimum Inhibitory Concentration: E. coli W3630/Rms212, 10^6 CFU/ml, Sensitivity Disk Agar; for MIC: Escherichia coli, W3630/RMS212, read-out: Minimum Inhibitory Concentration
# Procedure: as §1
# E. coli NIHJJC-2 = assay: MIC, agar plate dilution method; assay type: cell-based; details: for MIC: Escherichia coli
# Procedure: as §1
# E. coli C/Rms149 = assay: MIC, agar plate dilution method; assay type: cell-based; details: for MIC: Escherichia coli, read-out: Minimum Inhibitory Concentration
# Procedure: as §1
# P. vulgaris OB1043 = assay: MIC, agar plate dilution method; assay type: cell-based; details: Proteus vulgaris
# Procedure: as §1
# C. freundii No. 7 = assay: MIC, agar plate dilution method; assay type: cell-based; details: Citrobacter freundii
# Procedure: as §1
# E. cloaceae Nek 39 = assay: MIC, agar plate dilution method; assay type: cell-based; details: read-out: Minimum Inhibitory Concentration
# Procedure: as §1
# P. vulgaris No. 33 = assay: MIC, agar plate dilution method; assay type: cell-based; details: Proteus vulgaris
# Procedure: as §1
# E. coli CSH2 = assay: MIC, agar plate dilution method; assay type: cell-based; details: 10^6 CFU/ml, Sensitivity Disk Agar; for MIC: Escherichia coli, read-out: Minimum Inhibitory Concentration
# Procedure: as §1
# E. coli CSH = assay: MIC, agar plate dilution method; assay type: cell-based; details: for Minimum Inhibitory Concentration: E. coli CSH, 10^6 CFU/ml, Sensitivity Disk Agar; for MIC: Escherichia coli, read-out: Minimum Inhibitory Concentration
# Procedure: as §1
# P. cepacia 23 = assay: MIC, agar plate dilution method; assay type: cell-based, Pseudomonas cepacia
# Procedure: as §1
# S. aureus Smith = assay: treatment of experimental infection of mice; assay type: in vivo; details: Staphylococcus aureus
# P. aeruginosa D15 = assay: treatment of experimental infection of mice; assay type: in vivo; details: Pseudomonas aeruginosa, D15
# E. coli Juhl = assay: treatment of experimental infection of mice; assay type: in vivo; details: Escherichia coli
structure (smiles),measurement,setting,value
"CO/N=C(\C(=O)N[C@@H]1C(=O)N2C(C(=O)O)=C(COC(C)=O)CS[C@H]12)c1csc(N)n1 [Cefotaxime, reference compound]",antibacterial activity (in words),[1],excellent antibacterial activities
same,antibacterial activity (in words),Gram-negative bacteria,excellent activities
same,antibacterial activity (in words),Gram-positive bacteria,relatively poor antibacterial activities
same,MIC,"P. maltophilia IID 1275; IID1275, P. maltophilia IID 1275, 10^6 CFU/ml, Sensitivity Disk Agar, read-out: Minimum Inhibitory Concentration",> 25 mg/L
same,MIC,"P. aeruginosa AKR17; P. aeruginosa AKR17, 10^6 CFU/ml, Sensitivity Disk Agar, read-out: Minimum Inhibitory Concentration",> 25 mg/L
same,MIC,"P. aeruginosa AK109; P. aeruginosa AK109, 10^6 CFU/ml, Sensitivity Disk Agar, read-out: Minimum Inhibitory Concentration",6.25 mg/L
same,MIC,"S. aureus JS-1; JS1, S. aureus JS-1, 10^6 CFU/ml, Sensitivity Disk Agar, read-out: Minimum Inhibitory Concentration",6.25 mg/L
same,MIC,"S. marcescens No. 16-2; NO.162, S. marcescens No. 16-2, 10^6 CFU/ml, Sensitivity Disk Agar, read-out: Minimum Inhibitory Concentration",6.25 mg/L
same,MIC,E. coli ML1410/Rte16,≤ 0.05 mg/L
same,MIC,"K. pneumoniae No. 42; K. pneumoniae No. 42, 10^6 CFU/ml, Sensitivity Disk Agar, read-out: Minimum Inhibitory Concentration",≤ 0.05 mg/L
same,Minimum Inhibitory Concentration,E. coli W3630/Rms213,0.20 µg/mL
same,MIC,E. coli W3630/Rms213,0.2 mg/L
same,MIC,"P. mirabilis JY10; P. mirabilis JY10, 10^6 CFU/ml, Sensitivity Disk Agar, read-out: Minimum Inhibitory Concentration",≤ 0.05 mg/L
same,MIC,"A. calcoaceticus No. 14; A. calcoaceticus No. 14, 10^6 CFU/ml, Sensitivity Disk Agar, read-out: Minimum Inhibitory Concentration",25 mg/L
same,MIC,"S. aureus NIHJJC-1; NIHJJC1, S. aureus NIHJJC-1, 10^6 CFU/ml, Sensitivity Disk Agar, read-out: Minimum Inhibitory Concentration",0.78 mg/L
same,Minimum Inhibitory Concentration,E. coli W3630/Rms212,0.10 µg/mL
same,MIC,E. coli W3630/Rms212,0.1 mg/L
same,MIC,"E. coli NIHJJC-2; NIHJJC2, E. coli NIHJJC-2, 10^6 CFU/ml, Sensitivity Disk Agar, read-out: Minimum Inhibitory Concentration",≤ 0.05 mg/L
same,MIC,E. coli C/Rms149,≤ 0.05 mg/L
same,MIC,"P. vulgaris OB1043; P. vulgaris OB1043, 10^6 CFU/ml, Sensitivity Disk Agar, read-out: Minimum Inhibitory Concentration",0.39 mg/L
same,MIC,"C. freundii No. 7; C. freundii No. 7, 10^6 CFU/ml, Sensitivity Disk Agar, read-out: Minimum Inhibitory Concentration",0.39 mg/L
same,MIC,"E. cloaceae Nek 39; E. cloaceae Nek 39, 10^6 CFU/ml, Sensitivity Disk Agar",0.78 mg/L
same,MIC,"P. vulgaris No. 33; P. vulgaris No. 33, 10^6 CFU/ml, Sensitivity Disk Agar, read-out: Minimum Inhibitory Concentration",≤ 0.05 mg/L
same,MIC,E. coli CSH2,≤ 0.05 mg/L
same,Minimum Inhibitory Concentration,E. coli CSH,0.10 µg/mL
same,MIC,E. coli CSH,0.1 mg/L
same,MIC,"P. cepacia 23; Burkholderia cepacia, P. cepacia 23, 10^6 CFU/ml, Sensitivity Disk Agar, read-out: Minimum Inhibitory Concentration",3.12 mg/L
"CC(C)(O/N=C(\C(=O)N[C@@H]1C(=O)N2C(C(=O)[O-])=C(C[n+]3ccccc3)CS[C@H]12)c1csc(N)n1)C(=O)O [Ceftazidime, reference compound]",antibacterial activity (in words),Gram-negative bacteria,the most excellent cephalosporin derivative against Gram-negative bacteria
same,ED50,S. aureus Smith,11 mg/kg
same,ED50,P. aeruginosa D15,38 mg/kg
same,MIC,"P. maltophilia IID 1275; IID1275, read-out: Minimum Inhibitory Concentration",> 25 mg/L
same,MIC,"P. aeruginosa AKR17; AKR17, read-out: Minimum Inhibitory Concentration",> 25 mg/L
same,MIC,"P. aeruginosa AK109; AK109, read-out: Minimum Inhibitory Concentration",0.39 mg/L
same,ED50,E. coli Juhl,0.33 mg/kg
same,MIC,"S. aureus JS-1; JS1, read-out: Minimum Inhibitory Concentration",> 25 mg/L
same,MIC,"S. marcescens No. 16-2; NO.162, read-out: Minimum Inhibitory Concentration",1.56 mg/L
same,Minimum Inhibitory Concentration,"E. coli ML1410/Rte16; E. coli ML1410/Rte16, 10^6 CFU/ml, Sensitivity Disk Agar",0.20 µg/mL
same,MIC,E. coli ML1410/Rte16,0.2 mg/L
same,MIC,"K. pneumoniae No. 42; NO.42, read-out: Minimum Inhibitory Concentration",0.39 mg/L
same,Minimum Inhibitory Concentration,E. coli W3630/Rms213,0.20 µg/mL
same,MIC,E. coli W3630/Rms213,0.2 mg/L
same,MIC,"P. mirabilis JY10; JY10, read-out: Minimum Inhibitory Concentration",≤ 0.05 mg/L
same,MIC,"A. calcoaceticus No. 14; NO.14, read-out: Minimum Inhibitory Concentration",6.25 mg/L
same,MIC,"S. aureus NIHJJC-1; NIHJJC1, read-out: Minimum Inhibitory Concentration",3.12 mg/L
same,Minimum Inhibitory Concentration,E. coli W3630/Rms212,0.20 µg/mL
same,MIC,E. coli W3630/Rms212,0.2 mg/L
same,Minimum Inhibitory Concentration,"E. coli NIHJJC-2; E. coli NIHJJC-2, 10^6 CFU/ml, Sensitivity Disk Agar",0.1 µg/mL
same,MIC,"E. coli NIHJJC-2; NIHJJC2, read-out: Minimum Inhibitory Concentration",0.1 mg/L
same,Minimum Inhibitory Concentration,"E. coli C/Rms149; E. coli C/Rms149, 10^6 CFU/ml, Sensitivity Disk Agar",0.20 µg/mL
same,MIC,E. coli C/Rms149,0.2 mg/L
same,MIC,"P. vulgaris OB1043; OB1043, read-out: Minimum Inhibitory Concentration",≤ 0.05 mg/L
same,MIC,"C. freundii No. 7; NO.7, read-out: Minimum Inhibitory Concentration",1.56 mg/L
same,MIC,E. cloaceae Nek 39,0.78 mg/L
same,MIC,"P. vulgaris No. 33; NO.33, read-out: Minimum Inhibitory Concentration",≤ 0.05 mg/L
same,Minimum Inhibitory Concentration,E. coli CSH2,0.1 µg/mL
same,MIC,E. coli CSH2,0.1 mg/L
same,Minimum Inhibitory Concentration,E. coli CSH,0.10 µg/mL
same,MIC,E. coli CSH,0.1 mg/L
same,MIC,"P. cepacia 23; Burkholderia cepacia, 23, read-out: Minimum Inhibitory Concentration",0.39 mg/L
